The record followed here is ChEMBL document CHEMBL1201862, “PubChem BioAssay data set” (2004).

For series [1], the target named is T1, Coagulation factor XII (Homo sapiens, UniProt P00748).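 Note: activated factor XIIa alpha cleaving a fluorogenic AMC peptide substrate; inhibitor potency from loss of enzyme activity.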
T1 sequence (P00748 whole entry): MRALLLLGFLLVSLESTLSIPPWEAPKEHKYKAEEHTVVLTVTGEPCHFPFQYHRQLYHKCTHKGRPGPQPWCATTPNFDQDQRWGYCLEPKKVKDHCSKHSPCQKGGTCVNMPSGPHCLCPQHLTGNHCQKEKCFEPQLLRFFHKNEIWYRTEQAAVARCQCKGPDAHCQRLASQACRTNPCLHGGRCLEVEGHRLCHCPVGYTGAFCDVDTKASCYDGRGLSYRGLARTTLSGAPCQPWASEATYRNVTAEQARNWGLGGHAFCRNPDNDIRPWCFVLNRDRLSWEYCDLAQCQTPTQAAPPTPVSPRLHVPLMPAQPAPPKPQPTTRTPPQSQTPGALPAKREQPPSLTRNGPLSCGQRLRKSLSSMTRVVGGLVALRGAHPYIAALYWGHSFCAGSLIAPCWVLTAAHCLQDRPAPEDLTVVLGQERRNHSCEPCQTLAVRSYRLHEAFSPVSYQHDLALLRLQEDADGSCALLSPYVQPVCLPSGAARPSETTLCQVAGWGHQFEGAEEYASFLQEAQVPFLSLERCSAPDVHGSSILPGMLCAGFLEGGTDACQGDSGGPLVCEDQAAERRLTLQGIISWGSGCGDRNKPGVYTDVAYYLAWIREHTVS
It is filed as functional.

The target in series [2] is Cytochrome P450 3A4 (Homo sapiens, UniProt P08684).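 Note: CYP3A4 tested as one member of a cytochrome P450 panel screen.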
For series [3], the system named is HeLa. Nature of the series: HeLa cell cytotoxicity, dose response, cytotoxicity control for MITF activator project, CellTiter-Glo luminescence, cherry-pick samples (AID 540259). It is filed as functional, cell-based. The note with it: Homo sapiens.
The target in series [4] is ATP-dependent molecular chaperone HSP82 (Candida albicans (strain WO-1) (Yeast), UniProt C4YTQ8). Nature of the series: loss of DOC-induced GRE-beta-galactosidase reporter signal, dose response, Hsp90 inhibitor project, S. cerevisiae, luminescence (AID 2400).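 Note: beta-galactosidase luminescence from glucocorticoid response element reporter as proxy for Hsp90 function; inhibitor potency where signal loss means Hsp90 inhibition.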 It is filed as functional, cell-based.
Series [5] is described as follows: NIH-3T3 fibroblast cytotoxicity, dose response, cytotoxicity control, cell-based, fluorescence, Alamar Blue, secondary assay (AID 2327).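 Note: NIH-3T3 mouse fibroblasts cultured with fluconazole at 8 µg/mL.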 It is filed as functional.
For series [6], the target named is T2, Serine/threonine-protein phosphatase (Candida dubliniensis (strain CD36 / CBS 7987 / NCPF 3949 / NRRLY-17841) (Yeast), UniProt B9W6M3).
T2 sequence (B9W6M3 whole entry): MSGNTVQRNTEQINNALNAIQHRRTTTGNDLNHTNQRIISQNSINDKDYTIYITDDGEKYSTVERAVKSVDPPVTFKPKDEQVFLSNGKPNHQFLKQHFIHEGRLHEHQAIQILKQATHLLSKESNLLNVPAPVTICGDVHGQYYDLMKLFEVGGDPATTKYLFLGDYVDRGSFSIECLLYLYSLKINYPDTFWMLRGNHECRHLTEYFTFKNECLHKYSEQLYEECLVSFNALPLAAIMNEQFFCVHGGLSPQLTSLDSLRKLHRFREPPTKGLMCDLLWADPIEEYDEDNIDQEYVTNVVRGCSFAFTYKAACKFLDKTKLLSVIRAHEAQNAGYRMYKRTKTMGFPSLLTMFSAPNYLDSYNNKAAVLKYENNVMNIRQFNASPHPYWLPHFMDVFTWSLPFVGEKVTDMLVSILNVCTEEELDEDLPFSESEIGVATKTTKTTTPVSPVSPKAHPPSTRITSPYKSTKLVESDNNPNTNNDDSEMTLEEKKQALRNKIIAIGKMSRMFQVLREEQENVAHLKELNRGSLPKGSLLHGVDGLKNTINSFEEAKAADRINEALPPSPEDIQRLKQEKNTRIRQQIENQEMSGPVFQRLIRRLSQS
Nature of the series: calcineurin pathway inhibitors in yeast reporter, dose response, S. cerevisiae, CDRE-lacZ, luminescence, secondary (AID 2388).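 Note: yeast reporter cells carrying a calcineurin-responsive lacZ construct stimulated with calcium chloride; luminescent beta-galactosidase reporter signal in whole cells rather than isolated phosphatase activity; potency for inhibition where a drop in reporter signal means calcineurin blockade.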 It is filed as functional, cell-based.

Series [7] can be described thus: C. albicans growth with fluconazole, confirmation, fluorescence, retest (AID 2467). It is filed as functional, cell-based.
Series [8] concerns the target Dual specificity tyrosine-phosphorylation-regulated kinase 1A (Rattus norvegicus, UniProt Q63470). It is filed as biochemical, Homo sapiens.
Series [9] concerns the target NAD-dependent protein deacylase sirtuin-5, mitochondrial (Homo sapiens, UniProt Q9NXA8). Nature of the series: SIRT5 desuccinylase inhibitors, dose response, biochemical, fluorescence imaging, cherry-pick, set 5 (AID 720591).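 Note: desuccinylation of succinyl peptide AMC substrate read as fluorescence after trypsin release; potency of inhibitors that lower fluorescence and may act on trypsin instead.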
Series [10] addresses Phospholipase A2 (Homo sapiens, UniProt P04054). It is filed as functional.
Series [11] has as its target T3, Cysteine protease ATG4B (Homo sapiens, UniProt Q9Y4P1).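 Note: Fluorescence-based dose-response confirmation assay measuring inhibition of ATG4B activity.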
T3 sequence (Q9Y4P1 whole entry): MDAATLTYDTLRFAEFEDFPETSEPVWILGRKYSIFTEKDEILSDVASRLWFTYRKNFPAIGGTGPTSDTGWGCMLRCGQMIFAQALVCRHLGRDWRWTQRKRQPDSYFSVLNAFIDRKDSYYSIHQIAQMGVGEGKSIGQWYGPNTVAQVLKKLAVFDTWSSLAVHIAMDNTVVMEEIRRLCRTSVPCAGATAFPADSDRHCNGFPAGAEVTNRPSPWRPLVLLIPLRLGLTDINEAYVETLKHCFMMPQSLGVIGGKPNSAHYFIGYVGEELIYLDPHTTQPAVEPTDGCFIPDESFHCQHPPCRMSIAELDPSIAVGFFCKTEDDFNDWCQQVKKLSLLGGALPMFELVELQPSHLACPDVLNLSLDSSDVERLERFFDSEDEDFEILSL
It is filed as functional.

The target in series [12] is T4, Apoptotic protease-activating factor 1 (Homo sapiens, UniProt O14727).
T4 sequence (O14727 whole entry): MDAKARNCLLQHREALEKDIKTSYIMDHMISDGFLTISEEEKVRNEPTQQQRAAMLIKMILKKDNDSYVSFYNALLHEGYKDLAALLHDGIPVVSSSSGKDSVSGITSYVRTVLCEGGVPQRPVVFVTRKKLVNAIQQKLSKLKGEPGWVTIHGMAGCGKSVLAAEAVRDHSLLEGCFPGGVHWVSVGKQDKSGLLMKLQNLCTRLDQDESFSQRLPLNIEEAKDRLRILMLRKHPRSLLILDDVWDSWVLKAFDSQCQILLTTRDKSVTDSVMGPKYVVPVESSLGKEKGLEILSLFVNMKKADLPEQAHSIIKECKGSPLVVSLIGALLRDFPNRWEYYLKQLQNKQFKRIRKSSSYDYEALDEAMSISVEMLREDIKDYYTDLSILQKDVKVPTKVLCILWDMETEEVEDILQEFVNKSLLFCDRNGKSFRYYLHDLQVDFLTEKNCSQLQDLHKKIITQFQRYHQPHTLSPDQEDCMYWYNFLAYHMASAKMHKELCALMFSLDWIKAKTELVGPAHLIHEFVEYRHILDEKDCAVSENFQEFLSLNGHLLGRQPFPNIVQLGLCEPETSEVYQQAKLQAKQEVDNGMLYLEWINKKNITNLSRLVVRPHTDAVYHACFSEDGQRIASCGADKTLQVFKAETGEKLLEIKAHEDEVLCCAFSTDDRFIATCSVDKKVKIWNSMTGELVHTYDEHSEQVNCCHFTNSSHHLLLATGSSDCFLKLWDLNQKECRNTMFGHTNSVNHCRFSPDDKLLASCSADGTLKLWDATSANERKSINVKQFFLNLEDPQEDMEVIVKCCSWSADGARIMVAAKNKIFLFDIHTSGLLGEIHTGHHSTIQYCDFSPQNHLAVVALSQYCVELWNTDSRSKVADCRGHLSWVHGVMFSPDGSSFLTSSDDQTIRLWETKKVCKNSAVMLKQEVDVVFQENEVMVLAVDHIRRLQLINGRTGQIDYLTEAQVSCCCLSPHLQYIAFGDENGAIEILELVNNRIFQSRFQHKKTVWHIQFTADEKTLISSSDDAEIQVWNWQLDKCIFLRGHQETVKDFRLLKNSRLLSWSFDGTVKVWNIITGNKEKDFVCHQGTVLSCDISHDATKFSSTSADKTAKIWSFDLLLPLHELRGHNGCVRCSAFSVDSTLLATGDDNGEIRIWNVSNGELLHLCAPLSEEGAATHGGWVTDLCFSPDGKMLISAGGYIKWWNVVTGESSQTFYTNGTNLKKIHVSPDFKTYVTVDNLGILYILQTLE
It is filed as functional.

Series [13] has as its system Vero. Nature of the series: cells. It is filed as functional. The following applies: Chlorocebus sabaeus.
Series [14] concerns Vero. Nature of the series: cells. It is filed as functional, cell-based. The following applies: Chlorocebus sabaeus.
For series [15], the system named is Vero. Nature of the series: host cell cytotoxicity of antiviral hits, dose response, cytotoxicity control for West Nile virus antiviral project, secondary assay (AID 1650). It is filed as functional. The note with it: Chlorocebus sabaeus.
Series [16] deals with Cytochrome P450 2C9 (Homo sapiens, UniProt P11712).
Series [17] has as its system BJ. Nature of the series: cytotoxicity toward BJ-TERT-LT-ST fibroblasts, dose response, cell-based, RAS-independent, luminescence (AID 1935).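 Note: BJ fibroblasts immortalized with TERT plus LT and ST oncogenes.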 It is filed as functional. The following applies: Homo sapiens.
Series [18] is described as follows: cytotoxicity toward DRD oncogenic fibroblasts, dose response, cell-based, non-viral oncogenic, luminescence (AID 1934). It is filed as functional. The following applies: Homo sapiens.
Series [19] deals with INS1. Nature of the series: beta cell apoptosis inhibitors, cytokine rescue, dose response, luminescence, retest (AID 449756).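 Note: cell death triggered by IL-1 beta plus TNF-alpha plus IFN-gamma mixture; protective hits raise ATP signal compared with cytokine alone wells.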 It is filed as functional, cell-based. The following applies: Rattus norvegicus.
In series [20] the test system is BJ. Nature of the series: cells. It is filed as functional, cell-based. The following applies: Homo sapiens.
Series [21] relates to BJ. Nature of the series: cytotoxicity toward BJ-TERT fibroblasts, dose response, cell-based, RAS-independent, luminescence (AID 1933). The following applies: Homo sapiens. It is filed as functional.
Series [22] has as its system BJ. Nature of the series: cytotoxicity toward Ras-transformed BJeLR fibroblasts, dose response, cell-based, alamar blue fluorescence, cherrypicked samples (AID 2631).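 Note: confirmatory dose-response assay in RAS-dependent BJ fibroblasts engineered with TERT, LT and ST, with cytotoxicity read by fluorescence.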 It is filed as functional. The following applies: Homo sapiens. Background: Alamar Blue is a resazurin reagent that responds to reducing activity.

Molecules are shown by their SMILES. Active and inactive are the calls of the source.

Sequence of Cytochrome P450 3A4 (P08684 whole entry): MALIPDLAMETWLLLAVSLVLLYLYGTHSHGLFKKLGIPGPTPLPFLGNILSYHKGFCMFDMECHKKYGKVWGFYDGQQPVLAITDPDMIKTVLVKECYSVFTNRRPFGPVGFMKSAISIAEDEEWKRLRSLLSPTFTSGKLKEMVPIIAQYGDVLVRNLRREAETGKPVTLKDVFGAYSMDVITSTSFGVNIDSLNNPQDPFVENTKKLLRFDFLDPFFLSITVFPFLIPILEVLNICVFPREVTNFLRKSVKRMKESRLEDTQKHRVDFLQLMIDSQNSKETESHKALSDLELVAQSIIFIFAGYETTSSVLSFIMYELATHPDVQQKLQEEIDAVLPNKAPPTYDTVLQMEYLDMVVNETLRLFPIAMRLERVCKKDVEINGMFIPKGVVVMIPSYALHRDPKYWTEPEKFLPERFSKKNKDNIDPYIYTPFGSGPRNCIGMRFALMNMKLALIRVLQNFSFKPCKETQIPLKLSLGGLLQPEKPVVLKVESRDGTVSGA
Sequence of NAD-dependent protein deacylase sirtuin-5, mitochondrial (Q9NXA8 whole entry): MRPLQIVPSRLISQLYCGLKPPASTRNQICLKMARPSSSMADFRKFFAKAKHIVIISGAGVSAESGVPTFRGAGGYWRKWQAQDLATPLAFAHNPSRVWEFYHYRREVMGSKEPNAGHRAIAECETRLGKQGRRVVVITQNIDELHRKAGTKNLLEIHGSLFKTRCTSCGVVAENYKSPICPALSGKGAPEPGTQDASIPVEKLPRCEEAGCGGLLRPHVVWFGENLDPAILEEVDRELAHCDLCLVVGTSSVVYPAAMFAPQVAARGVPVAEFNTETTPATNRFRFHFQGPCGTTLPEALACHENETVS
Sequence of Phospholipase A2 (P04054 whole entry): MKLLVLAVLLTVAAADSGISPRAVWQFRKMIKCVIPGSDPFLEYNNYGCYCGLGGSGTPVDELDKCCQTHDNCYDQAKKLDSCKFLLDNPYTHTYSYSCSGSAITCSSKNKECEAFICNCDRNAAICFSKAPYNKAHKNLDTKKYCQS
Sequence of ATP-dependent molecular chaperone HSP82 (C4YTQ8 whole entry): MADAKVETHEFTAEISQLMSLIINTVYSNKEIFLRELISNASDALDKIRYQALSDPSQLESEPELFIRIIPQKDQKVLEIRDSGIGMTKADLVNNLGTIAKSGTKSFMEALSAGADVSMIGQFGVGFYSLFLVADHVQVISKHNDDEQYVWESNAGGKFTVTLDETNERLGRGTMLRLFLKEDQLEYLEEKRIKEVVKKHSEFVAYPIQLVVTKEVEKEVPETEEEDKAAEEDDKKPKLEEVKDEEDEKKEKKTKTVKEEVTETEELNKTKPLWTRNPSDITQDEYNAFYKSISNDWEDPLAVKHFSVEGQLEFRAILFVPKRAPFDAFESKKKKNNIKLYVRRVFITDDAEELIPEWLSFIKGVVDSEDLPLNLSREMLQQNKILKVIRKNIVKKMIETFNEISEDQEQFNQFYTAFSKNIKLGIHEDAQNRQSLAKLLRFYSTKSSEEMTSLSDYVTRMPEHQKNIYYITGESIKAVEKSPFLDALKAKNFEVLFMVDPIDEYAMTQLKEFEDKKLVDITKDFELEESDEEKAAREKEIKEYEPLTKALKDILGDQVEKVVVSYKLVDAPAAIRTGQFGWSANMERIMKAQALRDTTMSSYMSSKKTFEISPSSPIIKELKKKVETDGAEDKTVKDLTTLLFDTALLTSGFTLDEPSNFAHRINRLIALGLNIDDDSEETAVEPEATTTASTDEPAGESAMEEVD
Sequence of Cytochrome P450 2C9 (P11712 whole entry): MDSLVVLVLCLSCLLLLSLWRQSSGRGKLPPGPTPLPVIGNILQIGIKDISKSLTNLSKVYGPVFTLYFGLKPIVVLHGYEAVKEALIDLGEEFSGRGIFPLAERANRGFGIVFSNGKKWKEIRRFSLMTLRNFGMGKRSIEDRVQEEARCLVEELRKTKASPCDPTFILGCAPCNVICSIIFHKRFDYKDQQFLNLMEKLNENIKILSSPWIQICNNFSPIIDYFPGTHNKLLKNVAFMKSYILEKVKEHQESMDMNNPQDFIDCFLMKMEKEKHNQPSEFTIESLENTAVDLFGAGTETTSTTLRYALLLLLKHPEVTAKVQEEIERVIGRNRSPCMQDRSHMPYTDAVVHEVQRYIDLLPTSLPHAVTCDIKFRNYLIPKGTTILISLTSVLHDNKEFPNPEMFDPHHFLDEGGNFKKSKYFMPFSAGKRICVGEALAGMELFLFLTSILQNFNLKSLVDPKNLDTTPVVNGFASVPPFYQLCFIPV

As to `O=C(NCc1ccncc1)c1ccc(Br)o1`, in series [1], the IC50 (usually the concentration needed to halve the response being measured) was > 50 µM (inactive).

With `CCCn1c(C)c(C(=O)c2ccc3ccccc3c2)c2ccccc21`, the concentration at half-maximal activity (AC50) (usually the midpoint of the concentration-response curve, whichever way the signal moves) in series [2] is “inconclusive”.

With `Cc1ccc(NC(=O)c2sc3nc(C)cc(C)c3c2N)cc1`, in series [3], the AC50 was 213 µM (active).

Regarding `Cc1ccc(OCc2cc(C(=O)N3C[C@H]4C[C@H]5C[C@@H](C4)C[C@H]3C5)no2)cc1C`, the AC50 in series [3] was 151 µM (active).

Regarding `CCCCn1cnc2sc(-c3ccccc3)cc2c1=O`, the AC50 in [3] is 111 µM (active).

Regarding `O=C1CCCc2ccccc2N1Cc1ccccc1Cl`, the AC50 entry in series [2] is reported as “inconclusive”.

With `CS(=O)(=O)NN1C(=O)c2ccccc2NC1c1cccc2cccnc12` (stereo not given), the EC50 (commonly the concentration needed to bring the measured effect to its halfway point) in series [4] was > 160 µM (inactive); in series [5] it was > 160 µM (inactive); in series [6], > 180 µM (inactive); in series [7], 0.697 µM (active).

As for `CCN(CC)c1c([N+](=O)[O-])c(=O)sc2ccccc12`, the AC50 in series [8] is > 120 µM (inactive).

Regarding `O=S(=O)([N-]c1nc2ccccc2nc1-[n+]1ccn(Cc2ccccc2)c1)c1ccc(Cl)cc1`, the AC50 in series [9] was 24.8 µM (active). For the same compound, the IC50 in series [1] is > 50 µM (inactive).

With `CN(C)c1cccc(C(=O)n2cc(C(=O)c3cc(F)ccc3O)cn2)c1`, the IC50 in series [10] was 9.78 µM (active); in series [11], 7.59 µM (active); in series [1], 12.4 µM (active).

Take `Cc1cccc(C)c1NC(=O)Cn1cc(C=O)c2ccccc21`: in [12], the IC50 was > 100 µM (inactive).

Take `CC1(C)COC(/C=C/c2ccc([N+](=O)[O-])cc2)=N1`: the CC50 (as a rule, the concentration giving 50% cytotoxicity) in [13] is 12.4 µM (active); in series [15], 10.2 µM (active). Also, in series [14], the IC50 is > 25 µM (active).

As to `Cc1ccc(Nc2ncc(C(=O)NCCCN3CCN(C)CC3)c3ccccc23)cc1Cl`, the CC50 in [13] is > 25 µM (active). Further, the half-inhibitory concentration (IC50) in series [14] is 22.7 µM (active).

For `CCOC(=O)/C(C#N)=C\N(C)C`, the AC50 entry in [2] is “inconclusive”; in series [16], 39.8 µM (inconclusive).

`CCOc1ccc(/N=C/c2c(C)[nH]n(-c3nc4ccccc4[nH]3)c2=O)cc1`: the EC50 in series [17] is 4.74 µM (inconclusive); in [18], 2.52 µM (active); in series [20] it was 2.41 µM (active); in [21], 1.22 µM (active); in [22] it was > 133 µM (inactive). The AC50 in series [19] is 1.98 µM (active).
